{"source": "patent US8926961B2", "about": "“HPV E6 protein T cell epitopes and uses thereof” (Board Of Trustees of The University Of Arkansas, priority 2007, dated 2015)", "key": {"[1]": {"tested_on": "peptide-pulsed Epstein-Barr Virus-transformed B-lymphoblastoid cell line cells", "assay": "Chromium release assay, subject 18 T-cell clones as effectors", "type": "cell-based, human", "conditions": "clones #83-18 and #87-18", "experimental": "(§1) To identify putative restricting Human Leukocyte Antigen class I molecule, enzyme-linked immunospot assays were performed, as described above, using autologous Epstein-Barr Virus-transformed B-lymphoblastoid cell line cells sharing one or a few class I molecules with the subjects. The results were confirmed using chromium release assays in which at least two autologous Epstein-Barr Virus-transformed B-lymphoblastoid cell line cells expressing the putative Human Leukocyte Antigen class I molecule were tested. The Epstein-Barr Virus-transformed B-lymphoblastoid cell line cells were labeled with 100 μCi of sodium chromate (Na2^51CrO4), and were incubated with 10 μM of positive peptide. After plating the cells in 96-wells plate at 3×10^3/well, effector cells were added at multiple effector to target cell (E:T) ratios. After 5 hr of incubation, the supernatants were harvested and radioactivity was counted with a gamma counter (Packard Instruments, Meriden, Conn.). Percentage specific lysis was calculated as described (39)."}, "[2]": {"tested_on": "HPV 16 E6 peptide-specific T-cell clones (subject 18)", "type": "cell-based, human", "conditions": "eight screen-positive T-cell clones of subject 18; HPV16 E6 121-145 region; 10 μM"}, "CD8 T-cell": {"tested_on": "CD8 T-cell", "assay": "ELISPOT assay of CD8 T-cell responses in women followed for abnormal Pap smear", "type": "cell-based, human", "conditions": "women with abnormal Pap smear", "experimental": "Women who were followed, but untreated for abnormal Pap smear results, were enrolled. HPV-DNA testing using the Linear Array HPV Geotyping Test (Roche Diagnostics, Indianapolis, Ind.) and enzyme-linked immunospot (ELISPOT) assay using the HPV 16 E6 and E7 antigens were performed. The subjects were categorized into three groups: regressor (n=32), persistor/progressor (n=33), or indeterminate (n=20) based on comparisons of pathological diagnoses (Pap smear or biopsy) between the last clinic visit and the current clinic visit at which blood samples were collected."}, "CD4+ T-cell": {"tested_on": "CD4+ T-cell", "assay": "Interferon-γ ELISPOT assay of CD4+ T-cell responses in subjects with abnormal Pap smear", "type": "cell-based, human", "experimental": "The role of CD4+ T-cell responses to the HPV-16 E6 and E7 proteins was examined in the outcomes of subjects being studied for abnormal Papanicolaouu (Pap) smear results. Subjects with a recent history of abnormal Papanicolaouu smear were eligible, and colposcopy guided biopsy was performed at enrollment. Interferon-γ enzyme-linked immunospot assay, and fluorescent activated cell sorter analysis were performed. Subjects with histological diagnoses of cervical intraepithelial neoplasia 1, 2, or 3 were considered to have short-term persistence of cervical abnormality and were called “persistors” (n=51) while those of normal histology were designated to be “regressors” (n=33). For the CD4+ T-cell responses, not only were the responses to E6 overall (Table 8) associated with a favorable clinical outcome, but also to a number of regions within the E6 protein. Furthermore, the regressors were more likely to have 2 or more E6-positive or E7-positive peptide regions as compared to the persistors (p=0.0035 or p=0.042 respectively) (Table 9)."}, "[3]": {"tested_on": "Human Leukocyte Antigen-matched HPV16 E7 11-20-pulsed targets", "conditions": "cited from earlier work"}, "[4]": {"tested_on": "peptide-pulsed Epstein-Barr Virus-transformed B-lymphoblastoid cell line cells", "assay": "Chromium release assay, subject 2 T-cell clones as effectors", "type": "cell-based, human", "conditions": "clones #76-2 and #78-2; three allogeneic B-LCL expressing HLA-B62; 10 μM peptide", "experimental": "as §1"}, "[5]": {"tested_on": "HPV 16 E6 peptide-specific T-cell clones (subject 2)", "type": "cell-based, human"}, "[6]": {"tested_on": "Human Leukocyte Antigen class I molecule", "assay": "Identification of the restricting Human Leukocyte Antigen molecules", "type": "cell-based", "experimental": "as §1"}, "[7]": {"conditions": "high-risk HPV-positive subjects"}, "[8]": {"conditions": "subjects positive for HPV-16 related types"}}}
{"substance": "E6 131-145: 15-mer peptide in the HPV16 E6 121-145 region (RFHNIRGRWTGRCMS; UniProt P03126 131-145, looked up, fragment)", "values": [{"measurement": "chromium release assay result", "setting": "[1]; autologous B-LCL and B-LCL expressing A68 or A6801", "result": "positive"}, {"measurement": "chromium release assay result", "setting": "[1]; other allogeneic B-LCL including HLA-6802", "result": "negative"}, {"measurement": "enzyme-linked immunospot response to individual 15-mer peptides", "setting": "[2]", "result": "positive"}]}
{"substance": "EPDRAHYNIVTFCCKCDSTLRLCVQ (E7 46-70 peptide from immunodominant epitope region of Human Papilloma Virus 16 E7 protein) [SEQ ID NO. 30]", "values": [{"measurement": "Responses (number of immune responses detected towards the region)", "setting": "CD8 T-cell", "result": 10}]}
{"substance": "RREVYDFAFRDLCIVYRDGNPYAVC (E6 46-70 peptide from immunodominant epitope region of Human Papilloma Virus 16 E6 protein) [SEQ ID NO. 31]", "values": [{"measurement": "Responses (number of immune responses detected towards the region)", "setting": "CD8 T-cell", "result": 8}]}
{"substance": "YGTTLEQQYNKPLCDLLIRCINCQK (E6 91-115 peptide from immunodominant epitope region of Human Papilloma Virus 16 E6 protein) [SEQ ID NO. 29]", "values": [{"measurement": "Responses (number of immune responses detected towards the region)", "setting": "CD8 T-cell", "result": 11}, {"measurement": "CD4+ T-cell responses, persistors", "setting": "CD4+ T-cell; all subjects", "result": 2, "unit": "%"}, {"measurement": "CD4+ T-cell responses, regressors", "setting": "CD4+ T-cell; all subjects", "result": 18, "unit": "%"}, {"measurement": "CD4+ T-cell responses, persistors", "setting": "CD4+ T-cell; [7]", "result": 2, "unit": "%"}, {"measurement": "CD4+ T-cell responses, regressors", "setting": "CD4+ T-cell; [7]", "result": 23, "unit": "%"}, {"measurement": "CD4+ T-cell responses, persistors", "setting": "CD4+ T-cell; [8]", "result": 0, "unit": "%"}, {"measurement": "CD4+ T-cell responses, regressors", "setting": "CD4+ T-cell; [8]", "result": 22, "unit": "%"}]}
{"substance": "YMLDLQPETT [SEQ ID NO. 26]", "values": [{"measurement": "patients whose cytotoxic T lymphocytes lysed peptide-pulsed targets", "setting": "[3]; cervical cancer patients", "result": "two of three patients"}, {"measurement": "Human Leukocyte Antigen restriction", "setting": "[3]", "result": "Human Leukocyte Antigen-A2"}]}
{"substance": "KFYSKISEY (E6 75-83 peptide from immunodominant epitope region of Human Papilloma Virus 16 E6 protein) [SEQ ID NO. 1]", "values": [{"measurement": "lysis of peptide-pulsed B-LCL in chromium release assay", "setting": "[4]", "result": "lysed"}, {"measurement": "serial dilution of the two peptides in enzyme-linked immunospot assay", "setting": "[5]; 10^−5M to 10^−10M", "result": "equivalent"}, {"measurement": "recognition of peptide-pulsed B-LCL by E6 75-83-specific T cell clones", "setting": "[5]; clones #76-2 and #78-2, autologous and five allogeneic HLA-B62 B-LCL, 10 μM", "result": "recognized"}, {"measurement": "number of spot forming units, 9-mer compared with surrounding 10-mers and 8-mers within", "setting": "[5]; subject 2 T-cell clones", "result": "comparable number of spot forming units"}, {"measurement": "spot forming units per well, series of 9-mer peptides within E6 71-85", "setting": "[5]; subject 2 T-cell clones", "result": "most number of spot forming units per well"}, {"measurement": "Human Leukocyte Antigen Restriction Element", "setting": "[6]", "result": "HLA-B62"}]}
